# Experiments:
# [1] = system: Malignant melanoma (TMX 13); assay: Cytotoxicity test (cell survival), MTT assay, TXM 13; format: cell-based; conditions: 24 hours
# Description: (§1) 3. Cytotoxicity Test (Cell Survival Test)
# (§2) Cytotoxicity was conducted through an MTT assay (Chemicon, Serologicals Corporation, USA) as follows.
# (§3) Cells were seeded at a density of 3×10^4 cells/well in 96-well plates (Nunc Do, Denmark).
# (§4) When the cells were at a confluence of about 60˜70%, 24 hours after seeding, the media was exchanged for 100 μl of fresh, serum-free media containing various respective concentrations of ALA or ALA-ester, after which the cells were incubated for an additional 24 hours.
# (§5) An MTT solution (0.5 mg/mL) was added in an amount of […] to each well, followed by incubation for 4 hours to form formazan crystals. A color-developing solution (isopropanol with 0.04 N HCl) was added in an amount of […] per well to solubilize the formazan crystals.
# (§6) The plates were measured for absorbance at 570 nm using an ELISA reader (EMAX, Molecular Device, USA).
# (4) Malignant Melanoma (TMX 13)
# [2] = system: Human dermal fibroblast (hF); assay: Cytotoxicity test (cell survival), MTT assay, hF; format: cell-based; conditions: 24 hours
# Description: as §1, §2, §3, §4, §5, §6
# (2) Human Dermal Fibroblast (hF)
# [3] = system: Squamous cell carcinoma (A431); assay: Cytotoxicity test (cell survival), MTT assay, A431; format: cell-based; conditions: 24 hours
# Description: as §1, §2, §3, §4, §5, §6
# (3) Squamous Cell Carcinoma (A431)
# [4] = system: skin of ICR mice (epidermis, sebaceous gland); assay: Cell death in skin tissue after ointment and LED irradiation, H&E (FIGS. 9, 10); format: in vivo
# Description: Ointments comprising ALA or the ALA esters of the present invention at various concentrations (5˜15%) were applied in a predetermined amount ([…]) to the back of shaved ICR mice.
# 1 and 4 hours after the application, the back was irradiated with LED visible light (dose 25 J/cm^2).
# 24, 48 and 72 hours after the irradiation, skin samples were taken from the back of the mice, stained with hematoxylin-eosin (H&E) and observed for cell death.
# [5] = system: A431 cells; assay: Fluorescence spectroscopy of PpIX synthesis in A431 cells (FIG. 1); format: cell-based; conditions: 4 hours incubation, excitation 405 nm, emission 605 nm
# Description: 4. Fluorescence Spectroscopy
# The synthesis of PpIX, induced by ALA and unsaturated alkyl esters of ALA in cells and skin tissues, was quantified using fluorescence spectroscopy.
# The intensity of PpIX was measured on a fluorescence spectrophotometer (Uvikon, model 943) with excitation at 408 nm.
# Each cell line was plated at a density of 2×10^5 cells in a 10 cm^2-dish (Falcon), and when the cells reached a confluent state of 70˜80%, serum-free media containing various concentrations (0.001˜1 mM) of ALA or ALA esters was added to the cells, followed by incubation for 4 hours.
# After being washed once with PBS, the cells were detached with a 50% methanol solution containing 1M […] (HClO4) and scraped off using a Costar cell scraper.
# The cells thus harvested were incubated for 5 min and centrifuged.
# The fluorescence of the supernatant thus obtained was determined using a spectrofluorometer with excitation at 405 nm and emission at 605 nm.
# The results are graphed in FIGS. 1 and 2.
# [6] = system: Human epidermal keratinocyte (HEK); assay: Cytotoxicity test (cell survival), MTT assay, HEK; format: cell-based; conditions: 24 hours; for MTT absorbance (OD): 570 nm; for Cell survival Avg (%) ± SD (%): Table 3
# Description: as §1, §2, §3, §4, §5, §6
# (1) Human Epidermal Keratinocyte (HEK)
# Cell survival of the human epidermal keratinocytes treated with ALA esters of the present invention and with ALA was compared. The results are summarized in Tables 1 and 2, which are represented in different manners depending on the measurements.
smiles,measurement,setting,value
"C=CCCCCOC(=O)CCC(=O)CN [ALA-6, 5-Aminolevulinic acid 5-hexenyl ester]",Cell survival Avg ± SD (%),"[1]; TXM 13, 0.01 mM",92.05 ± 9.09%
same,Cell survival Avg ± SD (%),"[1]; TXM 13, 0.05 mM",99.41 ± 8.25%
same,Cell survival Avg ± SD (%),"[1]; TXM 13, 0.1 mM",81.45 ± 6.38%
same,Cell survival Avg ± SD (%),"[1]; TXM 13, 0.5 mM",77.18 ± 8.17%
same,Cell survival Avg ± SD (%),"[1]; TXM 13, 1 mM",76.06 ± 6.81%
same,Cell survival Avg ± SD (%),"[1]; TXM 13, 2 mM",53.24 ± 6.8%
same,Cell survival Avg (%) ± SD (%),[2]; 0.01 mM,113.29 ± 13.51%
same,Cell survival Avg (%) ± SD (%),[2]; 0.05 mM,98.47 ± 13.03%
same,Cell survival Avg (%) ± SD (%),[2]; 0.1 mM,92.42 ± 13.86%
same,Cell survival Avg (%) ± SD (%),[2]; 0.5 mM,91.41 ± 9.04%
same,Cell survival Avg (%) ± SD (%),[2]; 1 mM,80.78 ± 5.6%
same,Cell survival Avg (%) ± SD (%),[2]; 2 mM,86.12 ± 5.37%
same,Cell survival Avg (%) ± SD (%),"[3]; A431, 0.01 mM",101.04 ± 0.88%
same,Cell survival Avg (%) ± SD (%),"[3]; A431, 0.05 mM",91.32 ± 3.42%
same,Cell survival Avg (%) ± SD (%),"[3]; A431, 0.1 mM",86.8 ± 3.22%
same,Cell survival Avg (%) ± SD (%),"[3]; A431, 0.5 mM",84.16 ± 5.58%
same,Cell survival Avg (%) ± SD (%),"[3]; A431, 1 mM",88.47 ± 4.59%
same,Cell survival Avg (%) ± SD (%),"[3]; A431, 2 mM",66.21 ± 4.43%
same,Sebaceous gland morphology after irradiation,"[4]; 24 hours after visible light 25 J/cm^2, FIG. 10",destroyed partially or wholly
same,Epidermis histology (H&E) after irradiation,"[4]; 48 hours after visible light 25 J/cm^2, FIGS. 9B and 9C",both necrosis and rejuvenation
same,PpIX synthesis compared with ALA,[5],greater PpIX synthesis in A431 cells than did ALA
same,MTT absorbance (OD),[6]; 0.01 mM,3.13 OD
same,Cell survival Avg (%) ± SD (%),[6]; 0.01 mM,106.44 ± 0.37%
same,MTT absorbance (OD),[6]; 0.05 mM,3.413 OD
same,Cell survival Avg (%) ± SD (%),[6]; 0.05 mM,77.97 ± 0.88%
same,MTT absorbance (OD),[6]; 0.1 mM,3.18 OD
same,Cell survival Avg (%) ± SD (%),[6]; 0.1 mM,69 ± 3.42%
same,MTT absorbance (OD),[6]; 0.5 mM,2.521 OD
same,Cell survival Avg (%) ± SD (%),[6]; 0.5 mM,61.39 ± 3.22%
same,MTT absorbance (OD),[6]; 1 mM,2.548 OD
same,Cell survival Avg (%) ± SD (%),[6]; 1 mM,62 ± 5.58%
same,MTT absorbance (OD),[6]; 2 mM,2.306 OD
same,Cell survival Avg (%) ± SD (%),[6]; 2 mM,62 ± 1.59%
same,MTT absorbance (OD),[6]; 5 mM,1.388 OD
same,activity at 10 µM,"[6]; Homo sapiens, HEK001, 0.01 mM, Table 2, read-out: Cell survival (% of control C, in brackets)",91.2%
same,activity at 2000 µM,"[6]; Homo sapiens, HEK2, 2 mM, Table 2, read-out: Cell survival (% of control C, in brackets)",67.3%
same,activity at 50 µM,"[6]; Homo sapiens, Keratinocyte, 0.05 mM, Table 2, read-out: Cell survival (% of control C, in brackets)",99.4%
same,activity at 100 µM,"[6]; Homo sapiens, Keratinocyte, 0.1 mM, Table 2, read-out: Cell survival (% of control C, in brackets)",92.7%
same,activity at 500 µM,"[6]; Homo sapiens, Keratinocyte, 0.5 mM, Table 2, read-out: Cell survival (% of control C, in brackets)",73.4%
same,activity at 1000 µM,"[6]; Homo sapiens, Keratinocyte, 1 mM, Table 2, read-out: Cell survival (% of control C, in brackets)",74.3%
same,activity at 5000 µM,"[6]; Homo sapiens, Keratinocyte, 5 mM, Table 2, read-out: Cell survival (% of control C, in brackets)",40.2%
